According to patent US11236122B2, “Triterpene amine derivatives” (DFH THERAPEUTICS, priority 2018, dated 2022):
Where a name gives a salt, the structure may show the parent alone.

How the values were obtained:
pNL4-3 SP1-V7A = test: CA-SP1 accumulation assay, SP1-V7A derivative; assay type: cell-based, HIV-1; conditions: HeLa or 293T cells; for % CA-SP1 Accumulation 100 nM SP1 V7A: 100 nM compound; for % CA-SP1 Accumulation 10 nM SP1 V7A: 10 nM compound
Description: (§1) Cell culture, plasmids and transfections. The MT-4 T-cell line was maintained in RPMI-1640 medium supplemented with 10% (vol/vol) fetal bovine serum (FBS), 2 mM glutamine, 100 U/mL penicillin and 100 μg/mL streptomycin at 37° C. in a humidified 5% CO2 atmosphere. HeLa and 293T cells were maintained in Dulbecco's modified Eagle's medium (DMEM) supplemented with 5% (vol/vol) FBS, 2 mM glutamine, 100 U/mL penicillin and 100 μg/mL streptomycin. Molecular clones used in this study were WT pNL4-3 and the derivative encoding a Val-to-Ala mutation at SP1 residue 7, referred to as SP1-V7A. The MT-4 T-cell line was transfected the DEAE/dextran procedure; HeLa and 293T cells were transfected with linear polyethylenimine (L-PEI) or Lipofectamine 2000 (Invitrogen) as recommended by the supplier.
(§2) CA-SP1 accumulation assay. For CA-SP1 accumulation assays, HeLa or 293T cells were transfected with WT pNL4-3 or the SP1-V7A derivative. At 24 h post-transfection, cells were starved in Met/Cys-free medium for 30 min and metabolically labeled with [^35S]Met/Cys-Pro-mix (Amersham) for 2-3 h. Maturation inhibitors were maintained in the cultures throughout the transfection and labeling period. Viruses were collected by ultracentrifugation at 99,000×g for 45-60 min. Virus pellets were resuspended in Triton X-100 lysis buffer [300 mM NaCl, 50 mM Tris-HCl (pH 7.5), 0.5% Triton X-100, 10 mM iodoacetamide, and protease inhibitor cocktail tablets (Roche)]. CA and CA-SP1 proteins were separated on 13.5-15% polyacrylamide gels by SDS-polyacrylamide gel electrophoresis, exposed to a phosphorimager plate (Fuji) and quantified by Quantity One software (Bio-Rad).

WT pNL4-3 = test: CA-SP1 accumulation assay, WT NL4-3; assay type: cell-based, HIV-1; conditions: HeLa or 293T cells; for % CA-SP1 Accumulation 100 nM NL4-3: 100 nM compound; for % CA-SP1 Accumulation 10 nM NL4-3: 10 nM compound
Description: as §1, §2

CN(C)CCCCNCC[C@]12CC[C@@H](C3(C)CC3)[C@@H]1[C@H]1CC[C@@H]3[C@@]4(C)CC[C@H](OC(=O)CC(C)(C)C(=O)O)C(C)(C)[C@@H]4CC[C@@]3(C)[C@]1(C)CC2 [Compound 51j, (3β)-17-[2-[[(4-Dimethylamino)butyl]amino]ethyl]-20,29-methano-28-norlupan-3-ol, 3-(1-Hydrogen 2,2-Dimethylbutanedioate)]
% CA-SP1 Accumulation 100 nM SP1 V7A (pNL4-3 SP1-V7A): 6.4%
% CA-SP1 Accumulation 100 nM NL4-3 (WT pNL4-3): 53.6%

CCN1CCC(NCC[C@]23CC[C@@H](C4(C)CC4)[C@@H]2[C@H]2CC[C@@H]4[C@@]5(C)CC[C@H](OC(=O)CC(C)(C)C(=O)O)C(C)(C)[C@@H]5CC[C@@]4(C)[C@]2(C)CC3)CC1 [Compound 51k]
% CA-SP1 Accumulation 100 nM SP1 V7A (pNL4-3 SP1-V7A): 27.3 (2) %
% CA-SP1 Accumulation 100 nM NL4-3 (WT pNL4-3): 55.0 (2) %

C=C(C)[C@@H]1CC[C@]2(CCNCCN3CCN(Cc4ccc(F)cc4)CC3)CC[C@]3(C)[C@H](CC[C@@H]4[C@@]5(C)CC[C@H](OC(=O)CC(C)(C)C(=O)O)C(C)(C)[C@@H]5CC[C@]43C)[C@@H]12 [Compound 51l, (3β)-17-[2-[[2-[4-(4-Fluorophenylmethyl)piperazin-1-yl]ethyl]amino]ethyl]-28-norlup-20(29)-en-3-ol, 3-(1-Hydrogen 2,2-Dimethylbutanedioate)]
% CA-SP1 Accumulation 10 nM SP1 V7A (pNL4-3 SP1-V7A): 38.2 (3) %
% CA-SP1 Accumulation 10 nM NL4-3 (WT pNL4-3): 48.9%

C=C(C)[C@@H]1CC[C@]2(CCNCCN3CCN(c4ccccc4)CC3)CC[C@]3(C)[C@H](CC[C@@H]4[C@@]5(C)CC[C@H](OC(=O)CC(C)(C)C(=O)O)C(C)(C)[C@@H]5CC[C@]43C)[C@@H]12 [Compound 51p, (3β)-17-[2-[[2-(4-Phenylpiperazin-1-yl)ethyl]amino]ethyl]-28-norlup-20(29)-en-3-ol, 3-(1-Hydrogen 2,2-Dimethylbutanedioate)]
% CA-SP1 Accumulation 10 nM SP1 V7A (pNL4-3 SP1-V7A): 22.5%
% CA-SP1 Accumulation 10 nM NL4-3 (WT pNL4-3): 60.0%

C=C(C)[C@@H]1CC[C@]2(CCNCCN3CCN(Cc4cccc5ccccc45)CC3)CC[C@]3(C)[C@H](CC[C@@H]4[C@@]5(C)CC[C@H](OC(=O)CC(C)(C)C(=O)O)C(C)(C)[C@@H]5CC[C@]43C)[C@@H]12 [Compound 51q, (3β)-17-[2-[[2-[4-(1-Naphthalenylmethyl)piperazin-1-yl]ethyl]amino]ethyl]-28-norlup-20(29)-en-3-ol, 3-(1-Hydrogen 2,2-Dimethylbutanedioate)]
% CA-SP1 Accumulation 10 nM SP1 V7A (pNL4-3 SP1-V7A): 11.6%
% CA-SP1 Accumulation 10 nM NL4-3 (WT pNL4-3): 26.8%

C=C(C)[C@@H]1CC[C@]2(CCNCCN3CCN(CC4CCCCC4)CC3)CC[C@]3(C)[C@H](CC[C@@H]4[C@@]5(C)CC[C@H](OC(=O)CC(C)(C)C(=O)O)C(C)(C)[C@@H]5CC[C@]43C)[C@@H]12 [Compound 51s, (3β)-17-[2-[[2-[4-(Cyclohexylmethyl)piperazin-1-yl]ethyl]amino]ethyl]-28-norlup-20(29)-en-3-ol, 3-(1-Hydrogen 2,2-Dimethylbutanedioate)]
% CA-SP1 Accumulation 10 nM SP1 V7A (pNL4-3 SP1-V7A): 14.5%
% CA-SP1 Accumulation 10 nM NL4-3 (WT pNL4-3): 48.7%

C=C(C)[C@@H]1CC[C@]2(CCNCCN3CCN(Cc4ccc5ccccc5n4)CC3)CC[C@]3(C)[C@H](CC[C@@H]4[C@@]5(C)CC[C@H](OC(=O)CC(C)(C)C(=O)O)C(C)(C)[C@@H]5CC[C@]43C)[C@@H]12 [Compound 51t, (3β)-17-[2-[[2-[4-(2-Quinolinylmethyl)piperazin-1-yl]ethyl]amino]ethyl]-28-norlup-20(29)-en-3-ol, 3-(1-Hydrogen 2,2-Dimethylbutanedioate)]
% CA-SP1 Accumulation 10 nM SP1 V7A (pNL4-3 SP1-V7A): 18.6%
% CA-SP1 Accumulation 10 nM NL4-3 (WT pNL4-3): 56.1%

C=C(C)[C@@H]1CC[C@]2(CCNCCN3CCN(Cc4ccccn4)CC3)CC[C@]3(C)[C@H](CC[C@@H]4[C@@]5(C)CC[C@H](OC(=O)CC(C)(C)C(=O)O)C(C)(C)[C@@H]5CC[C@]43C)[C@@H]12 [Compound 51u, (3β)-17-[2-[[2-[4-(2-Pyridinylmethyl)piperazin-1-yl]ethyl]amino]ethyl]-28-norlup-20(29)-en-3-ol, 3-(1-Hydrogen 2,2-Dimethylbutanedioate)]
% CA-SP1 Accumulation 10 nM SP1 V7A (pNL4-3 SP1-V7A): 30.2 (2) %
% CA-SP1 Accumulation 10 nM NL4-3 (WT pNL4-3): 53.8%

C=C(C)[C@@H]1CC[C@]2(CNCCCN3CCCC3)CC[C@]3(C)[C@H](CC[C@@H]4[C@@]5(C)CC[C@H](OC(=O)CC(C)(C)C(=O)O)C(C)(C)[C@@H]5CC[C@]43C)[C@@H]12 [Compound 51v, (3β)-28-[[3-(1-Pyrrolidinyl)propyl]amino]lup-20(29)-en-3-ol, 3-(1-Hydrogen 2,2-Dimethylbutanedioate) Sulfate]
% CA-SP1 Accumulation 10 nM SP1 V7A (pNL4-3 SP1-V7A): 10.3%
% CA-SP1 Accumulation 100 nM SP1 V7A (pNL4-3 SP1-V7A): 26.9%
% CA-SP1 Accumulation 10 nM NL4-3 (WT pNL4-3): 21.9%
% CA-SP1 Accumulation 100 nM NL4-3 (WT pNL4-3): 57.2%

C=C(C)[C@@H]1CC[C@]2(CNCCN3CCN(Cc4ccccc4)CC3)CC[C@]3(C)[C@H](CC[C@@H]4[C@@]5(C)CC[C@H](OC(=O)CC(C)(C)C(=O)O)C(C)(C)[C@@H]5CC[C@]43C)[C@@H]12 [Compound 51w, (3β)-28-[[2-[4-(Phenylmethyl)piperazin-1-yl]ethyl]amino]lup-20(29)-en-3-ol, 3-(1-Hydrogen 2,2-Dimethylbutanedioate) Sesquisulfate]
% CA-SP1 Accumulation 10 nM SP1 V7A (pNL4-3 SP1-V7A): 9.6%
% CA-SP1 Accumulation 100 nM SP1 V7A (pNL4-3 SP1-V7A): 21.6%
% CA-SP1 Accumulation 10 nM NL4-3 (WT pNL4-3): 16.3%
% CA-SP1 Accumulation 100 nM NL4-3 (WT pNL4-3): 50.1%

C=C(C)[C@@H]1CC[C@]2(CNCCN3CCN(S(C)(=O)=O)CC3)CC[C@]3(C)[C@H](CC[C@@H]4[C@@]5(C)CC[C@H](OC(=O)CC(C)(C)C(=O)O)C(C)(C)[C@@H]5CC[C@]43C)[C@@H]12 [Compound 51x, (3β)-28-[[2-[4-(Methylsulfonyl)piperazin-1-yl]ethyl]amino]lup-20(29)-en-3-ol, 3-(1-Hydrogen 2,2-Dimethylbutanedioate) Sulfate]
% CA-SP1 Accumulation 10 nM SP1 V7A (pNL4-3 SP1-V7A): 31.0%
% CA-SP1 Accumulation 100 nM SP1 V7A (pNL4-3 SP1-V7A): 26.9%
% CA-SP1 Accumulation 10 nM NL4-3 (WT pNL4-3): 56.6%
% CA-SP1 Accumulation 100 nM NL4-3 (WT pNL4-3): 74.3%

C=C(C)[C@@H]1CC[C@]2(CNCCN3CCS(=O)(=O)CC3)CC[C@]3(C)[C@H](CC[C@@H]4[C@@]5(C)CC[C@H](OC(=O)CC(C)(C)C(=O)O)C(C)(C)[C@@H]5CC[C@]43C)[C@@H]12 [Compound 51y, (3β)-28-[[2-[(1,1-Dioxothiomorpholin-4-yl)]ethyl]amino]lup-20(29)-en-3-ol, 3-(1-Hydrogen 2,2-Dimethylbutanedioate) Sulfate]
% CA-SP1 Accumulation 10 nM SP1 V7A (pNL4-3 SP1-V7A): 28.5%
% CA-SP1 Accumulation 100 nM SP1 V7A (pNL4-3 SP1-V7A): 28.1%
% CA-SP1 Accumulation 10 nM NL4-3 (WT pNL4-3): 56.4%
% CA-SP1 Accumulation 100 nM NL4-3 (WT pNL4-3): 69.4%

C=C(C)[C@@H]1CC[C@]2(CCNCCCN3CCCC3)CC[C@]3(C)[C@H](CC[C@@H]4[C@@]5(C)CC[C@H](OC(=O)CC(C)(C)C(=O)O)C(C)(C)[C@@H]5CC[C@]43C)[C@@H]12 [Compound 51z, (3β)-17-[2-[[3-(1-Pyrrolidinyl)propyl]amino]ethyl]-28-norlup-20(29)-en-3-ol, 3-(1-Hydrogen 2,2-Dimethylbutanedioate) Sulfate]
% CA-SP1 Accumulation 10 nM SP1 V7A (pNL4-3 SP1-V7A): 7.5%
% CA-SP1 Accumulation 100 nM SP1 V7A (pNL4-3 SP1-V7A): 10.5%
% CA-SP1 Accumulation 10 nM NL4-3 (WT pNL4-3): 9.5%
% CA-SP1 Accumulation 100 nM NL4-3 (WT pNL4-3): 19.9%
